Experimental data: patent publication US10793509B2, “Compounds useful in the treatment of neoplastic diseases” (UNIVERSITÄT ZU KÖLN, priority 2013, dated 2020)

Tests used:
Primary CLL cells = experiment: AnnexinV/PI assay on primary CLL cells; type: cell-based, human
Procedure: (§1) PBMCs or CLL cells (5*10^6 cells/ml) were incubated for 24 h with different compounds at concentrations from 0.01 to 100 μM. Cell survival was normalized to DMSO control [vehicle]. See Example 1.
(§2) Primary CLL or peripheral blood mononuclear cells of healthy donors (5*10^6/ml) were incubated for 24 h with different compounds according to the invention and NO-ASA as a control. The compounds were added in different concentrations, in particular in concentrations from 0.01-100 μM. Cell survival was assessed by AnnexinV/PI assay (Kit commercially available, e.g. by Biotium Inc, USA; or Phoenix Flow Systems, US), the results were normalized to DMSO control [vehicle] and dose response curves were calculated using a non-linear regression model.

[1] = test system: peripheral blood mononuclear cells (PBMCs) of healthy donors; experiment: AnnexinV/PI assay on PBMCs of healthy donors; type: cell-based; conditions: Homo sapiens, PBMC; 24 h incubation, 0.01-100 μM, 5*10^6 cells/ml, normalized to DMSO control; read-out: AnnexinV/PI assay EC50 PBMCs
Procedure: as §1, §2

MEC-1 = experiment: CellTiter-Glo ATP assay, MEC-1 cell line; type: cell-based; conditions: 24 h
Procedure: (§3) Several cell lines (n=5) were treated with different concentrations of p-NO-ASA, B9, B12 and B13 ranging between 0.01 μM and 1000 μM for 24 hours followed by addition of luminogenic CellTiter-Glo®-reagent. […] For each cell line the order of used compound in the bar chart is from left to right as following: p-NO-ASA, B9, B12, B13.
(§4) Treatment success in CLL may depend on cytogenetic and molecular parameters as for instance del13q or TP53 gene disruption. Therefore, the NO-ASA derivatives were examined on (chronic) B cell lymphoma cell lines with different geno- and phenotypes (JVM3, EHEB, U2932, MEC-1, GRANTA-519). The cells were treated with concentrations between 0.01 and 1000 μM for 24 h followed by the addition of luminogenic CellTiter-Glo® reagent.

GRANTA-519 = experiment: CellTiter-Glo ATP assay, GRANTA-519 cell line; type: cell-based; conditions: 24 h
Procedure: as §3, §4

JVM-3 = experiment: CellTiter-Glo ATP assay, JVM-3 cell line; type: cell-based, human; conditions: 24 h, 0.01-1000 μM
Procedure: as §3, §4

U2932 = experiment: CellTiter-Glo ATP assay, U2932 cell line; type: cell-based; conditions: 24 h, 0.01-1000 μM
Procedure: as §3, §4

EHEB = experiment: CellTiter-Glo ATP assay, EHEB cell line; type: cell-based; conditions: 24 h, 0.01-1000 μM
Procedure: as §3, §4

[2] = test system: SW480, MelJuso, HCC44, SH2 and COLO704 cell lines; type: cell-based; conditions: 24 h, 0.01-100 μM
Procedure: In the following experiment the possible therapeutic window for NO-ASA derivatives was investigated. […] The melanoma cell line MelJuso, the colon carcinoma cell line SW480, the small cell lung cancer cell line HCC44, the ovarian adenocarcinoma cell line COLO704 and the acute myeloid leukemia cell line SH2 were treated with concentrations of p-NO-ASA and B9, B12 and B13 in a range between 0.01 μM and 100 μM for 24 h, followed by addition of luminogenic CellTiter-Glo® reagent.

caspases 3 and 7 = experiment: caspase-3/7 assay in CLL cells; type: cell-based; conditions: Homo sapiens, CLL cell, 6 h, 0.01-20 μM, luminogenic caspase-3/7-substrate, read-out: activation of caspases 3 and 7, EC50
From the text: FIG. 8 depicts the involvement of caspase-mediated apoptosis in CLL cells upon treatment with p-NO-ASA, B9, B12 and B13. Representative blots of 3 independent experiments are shown. Untreated and DMSO (1%) treated cells served as control. beta-actin=loading control (FIG. 8A). para-NO-ASA and B9 induced a concentration-dependent increase in caspase-3/7-activation (FIG. 8B).
To determine whether the toxicity on CLL cells is due to caspase-mediated apoptosis, the cleavage of PARP (Poly(ADP-ribose)-Polymerase 1) and XIAP (X-linked inhibitor of apoptosis) was analyzed by immunoblot. CLL cells were cultured alone, with 1% DMSO or with EC50 of p-NO-ASA, meta-NO-ASA, B9, B12 and B13 for 24 h followed by protein lysation and western blot analysis using antibodies to detect prognostic apoptotic proteins (XIAP, PARP). […] All compounds tested induced PARP and XIAP cleavage (FIG. 8A). Further a caspase-3/7 assay was carried out. CLL cells were incubated with para-NO-ASA and B9 in different concentrations ranging from 0.01 μM to 20 μM for 6 h followed by addition of luminogenic caspase-3/7-substrate. This indicates the reduction of the survival of CLL cells upon treatment with p-NO-ASA and B9 due to the induction of caspase-mediated apoptosis.

[3] = test system: phosphorylated NFkappaBp65 protein; experiment: Western blot of NFkappaB phosphorylation status in CLL cells; type: cell-based, human; conditions: 3 h
Procedure: CLL cells were treated with B1, B9, B12 and B13 (0.1 μM, 1 μM, 10 μM) for 3 h. Untreated and DMSO (1%) treated cells served as control. GAPDH=loading control.
The BCR signalling pathway plays an important pathogenic role in CLL and lymphomas leading often to a constitutive active NFkappaB (in this state NFkappaB is phosphorylated). Therefore the influence of the derivatives on the phosphorylation status of NFkappaB was analyzed by Western Blot. CLL cells were treated with 0.1 μM, 1 μM or 10 μM of each derivate, respectively, for 3 h. CLL cells were treated with B1, B9, B12 and B13 (0.1 μM, 1 μM, 10 μM) for 3 h. Untreated and DMSO (1%) treated cells served as control. GAPDH=loading control.

[4] = 0.01-1000 μM, compared to B9, B12, B13

Which “selectivity for CLL cells compared to PBMCs” value (Primary CLL cells; FIG. 3, sensitivity of CLL cells vs PBMCs, 24 h) does the source give for `CC(=O)Oc1ccccc1C(=O)Oc1ccc(CO[N+](=O)[O-])cc1` [B1, 4-(nitrooxy)methyl phenyl-2-acetoxy benzoate, reference compound] here?
The value was “selective for CLL cells”.

And the EC50 (Primary CLL cells; Homo sapiens, CLL cell, 24 h incubation, 0.01-100 μM, 5*10^6 cells/ml, normalized to DMSO control, read-out: AnnexinV/PI assay EC50 Primary CLL)?
Its EC50 is 6.7 µM.

And the EC50 [1]?
Its EC50 is 47.2 µM.

What about the “effectiveness in MEC-1 (ATP content)” value (MEC-1; [4]) of the same molecule?
Its value is “significantly less effective”.

What about the EC50 (MEC-1; Homo sapiens, MEC1, CellTiter-Glo) of the same molecule?
The EC50 was 53.4 µM.

What about the “effectiveness in GRANTA-519 (ATP content)” value (GRANTA-519; [4]) of the same molecule?
The value was “significantly less effective”.

And the EC50 (GRANTA-519; Homo sapiens, Granta-519, CellTiter-Glo)?
Its EC50 is 22.2 µM.

What about the “ATP content in JVM-3” value (JVM-3) of the same molecule?
The value was “reduced ATP content”.

What about the “ATP content in U2932” value (U2932) of the same molecule?
Its value is “reduced ATP content”.

And the “ATP content in EHEB” value (EHEB)?
The value was “reduced ATP content”.

What about the “ATP content in SW480, MelJuso, HCC44, SH2 and COLO704 cell lines” value [2] of the same molecule?
The value was “reduced ATP content”.

What about the EC50 (caspases 3 and 7) of the same molecule?
The EC50 was 1.84 µM.

And the “reduction of NFkappaB activity (phosphorylated NFkappaBp65)” value ([3]; CLL cells, 0.1, 1, 10 μM)?
The value was “concentration dependent reduction”.

And the “concentration inducing the reduction of NFkappaB p65 protein” value ([3]; CLL cells)?
Its value is “twofold concentration”.
